Columns and labels:
AKT1,2 phosphorylation [1] = assay: AKT phosphorylation ELISA, OVCAR-3 cells; format: cell-based, human; conditions: for IC50: Homo sapiens, read-out: IC50, pAKT 1/2 inhibition
pAKT = assay: Western immunoblotting densitometry, pAKT, SKOV-3 cells; format: cell-based, human; conditions: 25 μM; for ratio [pAKT]/[GAPDH] band intensity: SKOV-3 cells; for ratio [pAKT]/[GAPDH] band intensity, single blot (panel A): panel A lower set, cell line not given, control ratio 0.996
AKT1,2 phosphorylation [2] = assay: AKT phosphorylation ELISA, UWB1.289 cells; format: cell-based, human; conditions: for Vmax ± SE, pAKT 1/2 inhibition: Michaelis Menten model; for IC50: Homo sapiens, read-out: IC50, pAKT 1/2 inhibition
[3] = test system: UWB1.289 cancer cell line; assay: cells; conditions: Homo sapiens, UWB1289, 48 h
AKT1,2 phosphorylation [4] = assay: AKT phosphorylation ELISA, SK-OV-3 cells; format: cell-based, human; conditions: for Vmax ± SE, pAKT 1/2 inhibition: Michaelis Menten model; for IC50: Homo sapiens, read-out: IC50, pAKT 1/2 inhibition
[5] = test system: UWB1.289 cancer cell line
[6] = test system: OVCAR-5 human ovarian adenocarcinoma xenograft; design: species or system CB17 SCID mice; conditions: mouse, in vivo
ERK1,2 phosphorylation [7] = assay: ERK1/2 phosphorylation ELISA, UWB1.289+BRCA1 cells; format: cell-based, human; conditions: for Vmax ± SE, pERK 1/2 inhibition: Michaelis Menten model; for IC50: Homo sapiens, read-out: IC50, pERK 1/2 inhibition
pERK1,2 = assay: Western immunoblotting densitometry, pERK1,2, SKOV-3 cells; format: cell-based, human; conditions: 25 μM; for ratio [pERK1+pERK2]/[GAPDH] band intensity: SKOV-3 cells; for ratio [pERK1+pERK2]/[GAPDH] band intensity, single blot (panel A): panel A lower set, cell line not given
ERK1,2 phosphorylation [8] = assay: ERK1/2 phosphorylation ELISA, SK-OV-3 cells; format: cell-based, human; conditions: for Vmax ± SE, pERK 1/2 inhibition: Michaelis Menten model; for IC50: Homo sapiens, read-out: IC50, pERK 1/2 inhibition

SMILES: C[C@]12CC[C@H]3[C@@H](CCC4=CC(=O)NCC[C@@]43C)[C@@H]1CC[C@@H]2OC(=O)CCOc1ccc(N(CCCl)CCCl)cc1 [ENGA-L06E, 5a,7a-dimethyl-2-oxo-2,3,4,5,5a,5b,6,7,7a,8,9,10,10a,10b,11,12-hexa decahydrocyclopenta [5, 6] naphtho [1,2-d] azepin-8-yl 3-(4-(bis(2-chloroethyl)amino)phenoxy) propanoate]
- Vmax ± SE, pAKT 1/2 inhibition (AKT1,2 phosphorylation [1]; 60 min, Michaelis Menten model): 62.20 ± 5.12
- IC50 (AKT1,2 phosphorylation [1]; 0.25 h, 15 min): 29.1 µM
- IC50 (AKT1,2 phosphorylation [1]; 0.5 h, 30 min): 24.4 µM
- IC50 (AKT1,2 phosphorylation [1]; 1 h, 60 min): 18.3 µM
- ratio [pAKT]/[GAPDH] band intensity (pAKT; 15min, control ratio 0.98): 0.94
- ratio [pAKT]/[GAPDH] band intensity (pAKT; 30min, control ratio 0.98): 0.78
- ratio [pAKT]/[GAPDH] band intensity (pAKT; 1h, control ratio 1.02): 0.73
- ratio [pAKT]/[GAPDH] band intensity (pAKT; 3h, control ratio 0.99): 0.65
- ratio [pAKT]/[GAPDH] band intensity (pAKT; 12h, control ratio 0.94): 0.58
- ratio [pAKT]/[GAPDH] band intensity, single blot (panel A) (pAKT; 1h): 0.40
- ratio [pAKT]/[GAPDH] band intensity, single blot (panel A) (pAKT; 3h): 0.20
- Vmax ± SE, pAKT 1/2 inhibition (AKT1,2 phosphorylation [2]; 15 min): 62.12 ± 1.41
- Vmax ± SE, pAKT 1/2 inhibition (AKT1,2 phosphorylation [2]; 30 min): 64.94 ± 4.22
- Vmax ± SE, pAKT 1/2 inhibition (AKT1,2 phosphorylation [2]; 60 min): 71.12 ± 3.34
- IC50 (AKT1,2 phosphorylation [2]; UWB1289, 0.25 h, 15 min): 16.9 µM
- IC50 (AKT1,2 phosphorylation [2]; UWB1289, 0.5 h, 30 min): 14.4 µM
- IC50 (AKT1,2 phosphorylation [2]; UWB1289, 1 h, 60 min): 11.8 µM
- TGI (Total Growth Inhibition) (OVCAR-3 cancer cell line): 32 ± 1.8 μΜ
- GI50 ([3]; read-out: GI50 (50% Growth Inhibition)): 3.5 ± 0.4 µM
- IC50 ([3]; read-out: IC50 (cytotoxic effect)): 20 ± 1.1 µM
- Vmax ± SE, pAKT 1/2 inhibition (AKT1,2 phosphorylation [4]; 15 min): 79.23 ± 0.39
- Vmax ± SE, pAKT 1/2 inhibition (AKT1,2 phosphorylation [4]; 30 min): 86.10 ± 1.13
- Vmax ± SE, pAKT 1/2 inhibition (AKT1,2 phosphorylation [4]; 60 min): 87.27 ± 0.59
- IC50 (AKT1,2 phosphorylation [4]; 0.25 h, 15 min): 25.9 µM
- IC50 (AKT1,2 phosphorylation [4]; 0.5 h, 30 min): 22.3 µM
- IC50 (AKT1,2 phosphorylation [4]; 1 h, 60 min): 21.4 µM
- TGI (Total Growth Inhibition) [5]: 8 ± 0.8 μΜ
- Median Overall Survival (OS) [6]: 98 days
- Progression Free Survival (PFS) [6]: 27 days
- Response Rate (RR) [6]: 100%
- Cures (mice alive for 120 days after tumor inoculation) ([6]; ip): 0/5
- MST (mean survival time) ([6]; ip): 93.2 ± 2.4 p < 0.01 Days
- T/C% (mean survival time of treated versus saline controls) ([6]; ip): 184.8%
- TI% (Tumor Inhibition) ([6]; ip): 117.0%
- size of the primary tumor ([6]; ip): 220 ± 19.1 mm^3
- Vmax ± SE, pERK 1/2 inhibition (ERK1,2 phosphorylation [7]; 15 min): 59.43 ± 1.10
- Vmax ± SE, pERK 1/2 inhibition (ERK1,2 phosphorylation [7]; 30 min): 72.79 ± 1.14
- Vmax ± SE, pERK 1/2 inhibition (ERK1,2 phosphorylation [7]; 60 min): 74.35 ± 0.49
- IC50 (ERK1,2 phosphorylation [7]; 0.25 h, 15 min): 28.7 µM
- IC50 (ERK1,2 phosphorylation [7]; 0.5 h, 30 min): 12.4 µM
- IC50 (ERK1,2 phosphorylation [7]; 1 h, 60 min): 9.29 µM
- ratio [pERK1+pERK2]/[GAPDH] band intensity (pERK1,2; 15min, control ratio 1.70): 1.91
- ratio [pERK1+pERK2]/[GAPDH] band intensity (pERK1,2; 30min, control ratio 1.70): 1.74
- ratio [pERK1+pERK2]/[GAPDH] band intensity (pERK1,2; 1h, control ratio 1.78): 1.35
- ratio [pERK1+pERK2]/[GAPDH] band intensity (pERK1,2; 3h, control ratio 1.74): 0.68
- ratio [pERK1+pERK2]/[GAPDH] band intensity (pERK1,2; 12h, control ratio 1.61): 0.65
- ratio [pERK1+pERK2]/[GAPDH] band intensity, single blot (panel A) (pERK1,2; 1h, control ratio 1.78): 0.99
- ratio [pERK1+pERK2]/[GAPDH] band intensity, single blot (panel A) (pERK1,2; 3h, control ratio 1.78): 0.39
- Vmax ± SE, pERK 1/2 inhibition (ERK1,2 phosphorylation [8]; 15 min): 79.14 ± 2.62
- Vmax ± SE, pERK 1/2 inhibition (ERK1,2 phosphorylation [8]; 30 min): 82.95 ± 1.69
- Vmax ± SE, pERK 1/2 inhibition (ERK1,2 phosphorylation [8]; 60 min): 84.71 ± 1.60
- IC50 (ERK1,2 phosphorylation [8]; 0.25 h, 15 min): 13 µM
- IC50 (ERK1,2 phosphorylation [8]; 0.5 h, 30 min): 11 µM
- IC50 (ERK1,2 phosphorylation [8]; 1 h, 60 min): 8.78 µM
